Reference: patent US9974768B2, “Pharmaceutical for improving dysphagia” (MEIJI SEIKA PHARMA CO., LTD., priority 2013, dated 2018)
Entries after “also recorded” stand apart in the source; their conditions may differ.

What was measured:
[1] = test system: guinea pig dysphagia model induced by repeated administrations of haloperidol; assay: Swallowing reflex improvement in guinea pig dysphagia model induced by repeated administrations of haloperidol (water drinking frequency); assay type: in vivo
[2] = test system: blood pressure increase induced by angiotensin I; assay: Blood pressure increase induced by intravenous angiotensin I in normal rat; details: angiotensin I 300 ng/kg i.v. after 1 hour
Method: The respective dose of a captopril, or lisinopril aqueous solution was administered orally and the blood pressures were measured after 1 hour. Thereafter, angiotensin I was administered intravenously (300 ng/kg) to induce blood pressure increase and a change in the mean blood pressure was measured.

normal guinea pig = assay: Swallowing reflex in normal guinea pig after local pharyngeal administration of substance P receptor antagonist FK888; assay type: in vivo
Method: FIG. 4 is a graph showing the results of a study of decrease in a swallowing reflex in a normal guinea pig by local administration to a pharyngeal site of a substance P receptor antagonist, and an improving effect by a prior local administration to the pharyngeal site of a captopril aqueous solution in Example 3.
FK888 (10 μM, 50 μL/guinea pig), which is a substance P receptor antagonist, was administered locally with a spray device to a pharyngeal site of a guinea pig, and water drinking reflection frequency was measured in the same way as in Experiment 1.

Hartley guinea pigs = assay: Swallowing reflex decrease by repeated administrations of haloperidol (water drinking frequency); assay type: in vivo, guinea pig; details: haloperidol 1 mg/kg s.c. twice per day for 7 days, compared to physiological saline group
Method: To 6 week-old female Hartley guinea pigs (330 to 390 g) habituated for 1 week after receipt, a physiological saline solution, or a haloperidol solution was injected subcutaneously in a dosage of 1 mg/kg approx. every 12 hours twice per day for 7 days. Thereafter, a guinea pig was fixed at extremities, and 500 μL of distilled water was injected over 5 sec through a device to a part just before the pharynx, and the total frequency of swallowing until 10 sec and 30 sec from the injection was measured based on a muscle movement in a pharyngeal site. Thereafter a physiological saline solution, or a haloperidol solution was injected again (1 mg/kg).
The measurements were repeated totally 4 times at intervals of 1 min. […] Based on the result, the guinea pig was used as a dysphagia model induced by repeated administrations of haloperidol in the following experiments for evaluation of drug efficacy.

NCCCC[C@H](N[C@@H](CCc1ccccc1)C(=O)O)C(=O)N1CCC[C@H]1C(=O)O [lisinopril]
dose (solution concentration) with significant increase in water drinking frequency ([1]; 100 μL aqueous solution, single spray to pharyngeal mucosa): ≥ 50 nM | water drinking frequency ([1]; 100 μL of 0.5 nM to 500 μM aqueous solution, single spray to pharyngeal mucosa): dose-dependent increase | water drinking frequency ([1]; 100 μL of 50 nM aqueous solution, single spray to pharyngeal mucosa, 30 min after administration): increase in water drinking frequency | dose per administration giving dysphagia improving effect in a human ([1]; converted for a human having an average body weight of 60 kg): ≥ 300 ng | dysphagia improvement effective dose based on body weight ([1]; converted from effective dose obtained in Examples): 0.005 µg/kg | water drinking frequency (dysphagia improving effect) ([1]; local administration of 100 μL of 50 μM aqueous solution to pharyngeal mucosa, 2 hours after administration): exhibited an improving effect on dysphagia | water drinking frequency (dysphagia improving effect) ([1]; oral (intragastric) administration of same dose as local (100 μL of 50 mM solution), 2 hours after administration): exerted no influence; also recorded: no dysphagia improving effect was observed | vasopressor reaction by administration of angiotensin I (change in mean blood pressure) ([2]; 100 μL of 5 μM aqueous solution orally): had no influence | vasopressor reaction by administration of angiotensin I (change in mean blood pressure) ([2]; 100 μL of 5 mM aqueous solution orally): suppressed a vasopressor reaction

C[C@H](CS)C(=O)N1CCC[C@H]1C(=O)O [captopril]
water drinking frequency ([1]; 100 μL of 50 μM aqueous solution, single spray to pharyngeal mucosa, 30 min after administration): significant increase; also recorded: exhibited an improving effect on dysphagia | water drinking frequency ([1]; 100 μL of 50 mM aqueous solution, single spray to pharyngeal mucosa, 30 min after administration): significant increase; also recorded: exhibited an improving effect on dysphagia | water drinking frequency (dysphagia improving effect) ([1]; oral (intragastric) administration, same dose as 100 μL of 50 μM solution, 30 min after administration): did not exert an influence | water drinking frequency (dysphagia improving effect) ([1]; oral (intragastric) administration, same dose as 100 μL of 50 mM solution, 30 min after administration): did not exert an influence | decrease in swallowing reflex by FK888 administration (normal guinea pig; captopril aqueous solution sprayed to pharyngeal site in a single dose 30 min before FK888): suppressed

CN(Cc1ccccc1)C(=O)[C@H](Cc1ccc2ccccc2c1)NC(=O)[C@@H]1C[C@@H](O)CN1C(=O)c1cn(C)c2ccccc12 [FK888]
increase in water drinking frequency by lisinopril (50 nM, 100 μL) ([1]; FK888 10 nM, 100 μL sprayed to pharyngeal mucosa 15 min after lisinopril administration): almost completely suppressed | influence on swallowing reflex (normal guinea pig; FK888 10 nM, 100 μL, local, stated as lower limit): not influencing swallowing reflex | swallowing reflex (water drinking reflection frequency) (normal guinea pig; FK888 10 μM, 50 μL/guinea pig, single local spray to pharyngeal site): decrease in swallowing reflex

O=C(CCCN1CCC(O)(c2ccc(Cl)cc2)CC1)c1ccc(F)cc1 [haloperidol]
water drinking frequency (Hartley guinea pigs): significantly decreased
